Assays:
Format in all cases: functional
[1] = tested on: Candida albicans; test: Antifungal activity against Candida albicans NRRLY-477 assessed as diameter of inhibition zone at 1 mg/ml after 24 hrs by agar well diffusion method; conditions: NRRLY-477, 24 h, read-out: DIZ
[2] = tested on: Saccharomyces cerevisiae; test: Antifungal activity against Saccharomyces cerevisiae assessed as diameter of inhibition zone at 1 mg/ml after 24 hrs by agar well diffusion method; conditions: read-out: DIZ
[3] = tested on: Proteus vulgaris; test: Antibacterial activity against Proteus vulgaris assessed as diameter of inhibition zone at 1 mg/ml after 24 hrs by agar well diffusion method; conditions: read-out: DIZ
[4] = tested on: Micrococcus luteus; test: Antibacterial activity against Sarcina lutea assessed as diameter of inhibition zone at 1 mg/ml after 24 hrs by agar well diffusion method; conditions: read-out: DIZ
[5] = tested on: Escherichia coli; test: Antibacterial activity against Escherichia coli ATCC 25922 assessed as diameter of inhibition zone at 1 mg/ml after 24 hrs by agar well diffusion method; conditions: ATCC 25922, 24 h, read-out: DIZ
[6] = tested on: Pseudomonas aeruginosa; test: Antibacterial activity against Pseudomonas aeruginosa ATCC 27953 assessed as diameter of inhibition zone at 1 mg/ml after 24 hrs by agar well diffusion method; conditions: ATCC 27953, 24 h, read-out: DIZ
[7] = tested on: Klebsiella pneumoniae; test: Antibacterial activity against Klebsiella pneumoniae ATCC 13883 assessed as diameter of inhibition zone at 1 mg/ml after 24 hrs by agar well diffusion method; conditions: ATCC 13883, 24 h, read-out: DIZ
[8] = tested on: Priestia megaterium; test: Antibacterial activity against Bacillus megaterium ATCC 9885 assessed as diameter of inhibition zone at 1 mg/ml after 24 hrs by agar well diffusion method; conditions: ATCC 9885, 24 h, read-out: DIZ
[9] = tested on: Bacillus subtilis; test: Antibacterial activity against Bacillus subtilis ATCC 6633 assessed as diameter of inhibition zone at 1 mg/ml after 24 hrs by agar well diffusion method; conditions: ATCC 6633, 24 h, read-out: DIZ
[10] = tested on: Staphylococcus aureus; test: Antibacterial activity against Staphylococcus aureus ATCC 29213 assessed as diameter of inhibition zone at 1 mg/ml after 24 hrs by agar well diffusion method; conditions: ATCC 29213, 24 h, read-out: DIZ

CCCCCCNC(=S)Nc1ccc(C(=O)NCC(=O)O)cc1
zone of inhibition at 1000 µg/mL [1]: 0 mm
zone of inhibition at 1000 µg/mL [2]: 9 mm
zone of inhibition at 1000 µg/mL [3]: 0 mm
zone of inhibition at 1000 µg/mL [4]: 24 mm
zone of inhibition at 1000 µg/mL [5]: 11 mm
zone of inhibition at 1000 µg/mL [6]: 0 mm
zone of inhibition at 1000 µg/mL [7]: 12 mm
zone of inhibition at 1000 µg/mL [8]: 23 mm
zone of inhibition at 1000 µg/mL [9]: 9 mm
zone of inhibition at 1000 µg/mL [10]: 0 mm

O=C(O)CNC(=O)c1ccc(NC(=S)Nc2ccccc2)cc1
zone of inhibition at 1000 µg/mL [1]: 0 mm
zone of inhibition at 1000 µg/mL [2]: 0 mm
zone of inhibition at 1000 µg/mL [3]: 0 mm
zone of inhibition at 1000 µg/mL [4]: 0 mm
zone of inhibition at 1000 µg/mL [5]: 19 mm
zone of inhibition at 1000 µg/mL [6]: 12 mm
zone of inhibition at 1000 µg/mL [7]: 0 mm
zone of inhibition at 1000 µg/mL [8]: 13 mm
zone of inhibition at 1000 µg/mL [9]: 17 mm
zone of inhibition at 1000 µg/mL [10]: 0 mm

Cc1ccc(NC(=S)Nc2ccc(C(=O)NCC(=O)O)cc2)cc1
zone of inhibition at 1000 µg/mL [1]: 18 mm
zone of inhibition at 1000 µg/mL [2]: 0 mm
zone of inhibition at 1000 µg/mL [3]: 20 mm
zone of inhibition at 1000 µg/mL [4]: 25 mm
zone of inhibition at 1000 µg/mL [5]: 9 mm
zone of inhibition at 1000 µg/mL [6]: 0 mm
zone of inhibition at 1000 µg/mL [7]: 0 mm
zone of inhibition at 1000 µg/mL [8]: 19 mm
zone of inhibition at 1000 µg/mL [9]: 0 mm
zone of inhibition at 1000 µg/mL [10]: 0 mm

O=C(O)CNC(=O)c1ccc(NC(=S)Nc2ccc(F)cc2)cc1
zone of inhibition at 1000 µg/mL [1]: 9 mm
zone of inhibition at 1000 µg/mL [2]: 13 mm
zone of inhibition at 1000 µg/mL [3]: 20 mm
zone of inhibition at 1000 µg/mL [4]: 20 mm
zone of inhibition at 1000 µg/mL [5]: 22 mm
zone of inhibition at 1000 µg/mL [6]: 22 mm
zone of inhibition at 1000 µg/mL [7]: 20 mm
zone of inhibition at 1000 µg/mL [8]: 15 mm
zone of inhibition at 1000 µg/mL [9]: 0 mm
zone of inhibition at 1000 µg/mL [10]: 20 mm

O=C(O)CNC(=O)c1ccc(NC(=S)Nc2c3ccccc3nc3ccccc23)cc1
zone of inhibition at 1000 µg/mL [1]: 11 mm
zone of inhibition at 1000 µg/mL [2]: 0 mm
zone of inhibition at 1000 µg/mL [3]: 20 mm
zone of inhibition at 1000 µg/mL [4]: 0 mm
zone of inhibition at 1000 µg/mL [5]: 15 mm
zone of inhibition at 1000 µg/mL [6]: 15 mm
zone of inhibition at 1000 µg/mL [7]: 23 mm
zone of inhibition at 1000 µg/mL [8]: 18 mm
zone of inhibition at 1000 µg/mL [9]: 12 mm
zone of inhibition at 1000 µg/mL [10]: 20 mm

O=C(O)CNC(=O)c1ccc(NC(=S)Nc2ccccc2C(=O)Nc2cccc(C(F)(F)F)c2)cc1
zone of inhibition at 1000 µg/mL [1]: 0 mm
zone of inhibition at 1000 µg/mL [2]: 15 mm
zone of inhibition at 1000 µg/mL [3]: 10 mm
zone of inhibition at 1000 µg/mL [4]: 0 mm
zone of inhibition at 1000 µg/mL [5]: 0 mm
zone of inhibition at 1000 µg/mL [6]: 0 mm
zone of inhibition at 1000 µg/mL [7]: 0 mm
zone of inhibition at 1000 µg/mL [8]: 14 mm
zone of inhibition at 1000 µg/mL [9]: 16 mm
zone of inhibition at 1000 µg/mL [10]: 0 mm

CCOc1ccc(NC(=O)c2ccccc2NC(=S)Nc2ccc(C(=O)NCC(=O)O)cc2)cc1
zone of inhibition at 1000 µg/mL [1]: 9 mm
zone of inhibition at 1000 µg/mL [2]: 18 mm
zone of inhibition at 1000 µg/mL [3]: 15 mm
zone of inhibition at 1000 µg/mL [4]: 0 mm
zone of inhibition at 1000 µg/mL [5]: 0 mm
zone of inhibition at 1000 µg/mL [6]: 0 mm
zone of inhibition at 1000 µg/mL [7]: 20 mm
zone of inhibition at 1000 µg/mL [8]: 0 mm
zone of inhibition at 1000 µg/mL [9]: 0 mm
zone of inhibition at 1000 µg/mL [10]: 20 mm

NS(=O)(=O)c1ccc(NC(=S)Nc2ccc(C(=O)NCC(=O)O)cc2)cc1
zone of inhibition at 1000 µg/mL [1]: 0 mm
zone of inhibition at 1000 µg/mL [2]: 17 mm
zone of inhibition at 1000 µg/mL [3]: 20 mm
zone of inhibition at 1000 µg/mL [4]: 20 mm
zone of inhibition at 1000 µg/mL [5]: 18 mm
zone of inhibition at 1000 µg/mL [6]: 19 mm
zone of inhibition at 1000 µg/mL [7]: 22 mm
zone of inhibition at 1000 µg/mL [8]: 20 mm
zone of inhibition at 1000 µg/mL [9]: 18 mm
zone of inhibition at 1000 µg/mL [10]: 14 mm

CC(=O)NS(=O)(=O)c1ccc(NC(=S)Nc2ccc(C(=O)NCC(=O)O)cc2)cc1
zone of inhibition at 1000 µg/mL [1]: 0 mm
zone of inhibition at 1000 µg/mL [2]: 0 mm
zone of inhibition at 1000 µg/mL [3]: 0 mm
zone of inhibition at 1000 µg/mL [4]: 0 mm
zone of inhibition at 1000 µg/mL [5]: 0 mm
zone of inhibition at 1000 µg/mL [6]: 12 mm
zone of inhibition at 1000 µg/mL [7]: 0 mm
zone of inhibition at 1000 µg/mL [8]: 20 mm
zone of inhibition at 1000 µg/mL [9]: 18 mm
zone of inhibition at 1000 µg/mL [10]: 15 mm

— ChEMBL document CHEMBL2385069, “Thiourea derivatives incorporating a hippuric acid moiety: synthesis and evaluation of antibacterial and antifungal activities” (2013)
